How the values were obtained:
CC531 cells = experiment: Colorectal carcinoma model: CC531 cells implanted into the liver of Wag rats, tumor volume, metastasis and tolerability; type: in vivo; conditions: for Tumor Volume: % ± SD compared to untreated controls, CC531 liver tumor in Wag rats, treatment from 7th to 28th postoperative day; for tumor growth / primary tumor volume (in words): treatment day 7-28
Experimental: ombination of 1-(4-Chloroanilino)-4-(4-pyridylmethyl)phthalazine drochloride (ZK) and 3-pyridylmethyl-N-{4-[(2-amino-phenyl)-rbamoyl]benzyl}carbamate (MS) with Tamoxifen (TAM)
C cells CC531 were cultured in vitro (10th-15th passage) and implanted into e liver of adult (250 g) immuncompetent Wag rats (n/group=12). Between the venth and the 28th postoperative day the rats received either a placebo erapy, the conventional chemotherapy 5-fluoruracil (5FU, 10 mg/kg) or the llowing biomodulators alone or in combination: the VEGF receptor antagonist (4-Chloroanilino)-4-(4-pyridylmethyl)phthalazine hydrochloride (ZK) 0mg/kg), the histone deacetylase inhibitor 3-pyridylmethyl-N-{4-[(2-amino-enyl)carbamoyl]benzyl}carbamate (MS) dose and Tamoxifen (TAM) (TAM: g/kg KG i.p.). Apoptosis rate was assessed using a the TUNEL method on raformaldehyd fixed tumor material.

| Compound | melting point | Tumor Volume (CC531 cells) [%] | tumor growth / primary tumor volume (in words) (CC531 cells) |
| --- | --- | --- | --- |
| Cl.Nc1ccc2c(Cc3ccncc3)nnc(Nc3ccc(Cl)cc3)c2c1 | > 300 °C | – | – |
| CC(C)c1ccc(Nc2nnc(Cc3ccncc3)c3ccccc23)cc1.Cl.Cl | > 250 °C | – | – |
| Nc1ccccc1NC(=O)c1ccc(CNC(=O)OCc2cccnc2)cc1 [3-pyridylmethyl-N-{4-[(2-amino-phenyl)-carbamoyl]benzyl}-carbamate] | – | 80 ± 23 | – |
| O=c1[nH]cc(F)c(=O)[nH]1 [5-Fluorouracil (5FU), 5-Fluorouracil, reference compound] | – | 85 ± 19 | did not reduce tumor growth |
| CC(=O)Nc1ccc(Nc2nnc(Cc3ccncc3)c3ccccc23)cc1 [Example A-11, 1-(4-Acetaminoanilino)-4-(4-pyridylmethyl)phthalazine] | > 270 °C | – | – |
| Clc1ccc(Nc2nnc(Cc3ccncc3)c3ccccc23)cc1.O=C(O)CCC(=O)O [K, (4-Chlorophenyl)[4-(4-pyridylmethyl)-phthalazin-1-yl]-ammonium hydrogen succinate] | – | 94 ± 20 | no significant reduction |
| Nc1ccccc1NC(=O)c1ccc(CNC(=O)OCc2cccnc2)cc1 [MS, N-(2-aminophenyl)-4-[N-(pyridin-3-yl)methoxycarbonylaminomethyl]benzamide] | – | – | no significant reduction |
| CC/C(=C(\c1ccccc1)c1ccc(OCCN(C)C)cc1)c1ccccc1 [Tamoxifen (TAM), (Z)-2-[p-(1,2-diphenyl-1-butenyl)phenoxy]-N,N-dimethylethylamine, reference compound] | – | 90 ± 10 | no significant reduction |

Further lines, with some results ahead:

| melting point | Compound | Tumor Volume (CC531 cells) [%] | tumor growth / primary tumor volume (in words) (CC531 cells) |
| --- | --- | --- | --- |
| 204 to 209 °C (dec.) | COC(=O)c1ccc(C(=O)NCc2ccc(C(=O)Nc3ccccc3N)cc2)cc1 [Example 11, N-(2-aminophenyl)-4-[N-(4-methoxycarbonylbenzoyl)aminomethyl]benzamide] | – | – |
| 130 to 133 °C | Cc1ncsc1CCOC(=O)NCc1ccc(C(=O)Nc2ccccc2N)cc1 [Example 64, N-(2-aminophenyl)-4-[N-[2-(4-methylthiazol-5-yl)ethoxycarbonyl]aminomethyl]benzamide] | – | – |
| 162 to 164 °C | Nc1ccccc1NC(=O)c1ccc(-n2cc(COc3ccc([N+](=O)[O-])cc3)oc2=O)cc1 [Example 137, N-(2-aminophenyl)-4-[5-(4-nitrophenoxy)methyl-1,3-oxazolin-2-on-3-yl]benzamide] | – | – |
| 199 to 201 °C | Nc1ccccc1NC(=O)c1ccc(-n2cc(COc3cccnc3)oc2=O)cc1 [Example 139, N-(2-aminophenyl)-4-[5-(pyridin-3-yl)oxymethyl-1,3-oxazolin-2-on-3-yl]benzamide] | – | – |

Reference: patent publication US20050054647A1, “New pharmaceutical combination” (priority 2002, published 2005)
